Source: patent publication US20050197350A1, “Novel quinoline, tetrahydroquinazoline, and pyrimidine derivatives and methods of treatment related to the use thereof” (TAISHO PHARMACEUTICAL CO., LTD., priority 2003, published 2005)
Where two headings read alike, the source gives them in different places.

Tested on: MCH receptors
Assay: MCH receptor activity class (method not given)
[1] = activity class 1-3: percent of control at 10^-7 M or IC50
[2] = class by percent of control at 10^-7 M or IC50
[3] = class by percent of control at 10^−7 M or IC50
[4] = MCH receptor activity class 1-3 (percent of control at 10^-7 M or IC50)
[5] = activity class per percent of control at 10^-7 M or IC50
[6] = MCH receptor, class by percent of control at 10^-7 M or IC50
[7] = class 1-3 by percent of control at 10^-7 M or IC50

SMILES: COc1ccc(CCCCNC[C@H]2CC[C@@H](Nc3nccc(N(C)C)n3)CC2)cc1 [compound 1525]
- class [1]: 3 (Class 3 The value of percent of control at 10^−7 M was more than 60% or the value of IC50 was more than 200 nM.)

SMILES: CC(NC(=O)NC1CCC(Nc2nccc(N(C)C)n2)CC1)c1ccccc1 (stereo not shown) [compound 2227]
- class [2]: 3 (Class 3 The value of percent of control at 10^−7 M was more than 60% or the value of IC50 was more than 200 nM.)

SMILES: CN(C)c1cc(N[C@H]2CC[C@@H](CNCc3c(F)c(F)cc(F)c3F)CC2)nc2ccccc12 [compound 1472]
- class [2]: 3 (Class 3 The value of percent of control at 10^−7 M was more than 60% or the value of IC50 was more than 200 nM.)

SMILES: CN(C)c1ccnc(N[C@H]2CC[C@@H](NC(=O)c3cccc(Cl)c3)CC2)n1 [compound 242]
- class [2]: 1 (Class 1: The value of percent of control at 10^−7 M was less than 40% or the value of IC50 was less than 50 nM.)

SMILES: Cc1nc(N[C@H]2CC[C@@H](NC(=O)c3ccc(F)c(F)c3)CC2)nc(N(C)C)c1C [compound 2864]
- class [3]: 1 (Class 1: The value of percent of control at 10^−7 M was less than 40% or the value of IC50 was less than 50 nM.)

SMILES: Cc1cccc(C)c1NC(=O)NC[C@H]1CC[C@@H](Nc2nc3c(c(N(C)C)n2)CCCC3)CC1 [compound 2452]
- class [4]: 1 (Class 1: The value of percent of control at 10^−7 M was less than 40% or the value of IC50 was less than 50 nM.)

SMILES: CN(C)c1nc(N[C@H]2CC[C@@H](CNC(=O)Cc3cccs3)CC2)nc2c1CCCC2 [compound 615]
- class [2]: 3 (Class 3 The value of percent of control at 10^−7 M was more than 60% or the value of IC50 was more than 200 nM.)

SMILES: CN(C)c1nc(N[C@H]2CC[C@@H](NC(=O)Nc3ccc(F)cc3F)CC2)nc2c1CCCC2 [compound 1661]
- class [1]: 3 (Class 3 The value of percent of control at 10^−7 M was more than 60% or the value of IC50 was more than 200 nM.)

SMILES: Cc1cnc(N[C@H]2CC[C@@H](NC(=O)N(C)c3cccc(F)c3)CC2)nc1N(C)C [compound 3025, N′-(cis-4-{[4-(dimethylamino)-5-methylpyrimidin-2-yl]amino}cyclohexyl)-N-(3-fluorophenyl)-N-methylurea]
- class [3]: 1 (Class 1: The value of percent of control at 10^−7 M was less than 40% or the value of IC50 was less than 50 nM.)

SMILES: Cc1cnc(N[C@H]2CC[C@@H](CNC(=O)c3cccnc3Oc3ccc(Cl)c(F)c3)C2)nc1N(C)C [compound 3020]
- class [3]: 3 (Class 3 The value of percent of control at 10^−7 M was more than 60% or the value of IC50 was more than 200 nM.)

SMILES: COc1ccc2c(CC(=O)N[C@H]3CC[C@@H](Nc4nc5c(c(N(C)C)n4)CCCC5)CC3)cc(=O)oc2c1 [compound 990]
- class [5]: 1 (Class 1: The value of percent of control at 10^−7 M was less than 40% or the value of IC50 was less than 50 nM.)

SMILES: CCOc1cc(CNC[C@H]2CC[C@@H](Nc3nc4c(c(N(C)C)n3)CCCC4)CC2)ccc1OC [compound 1376]
- class [2]: 1 (Class 1: The value of percent of control at 10^−7 M was less than 40% or the value of IC50 was less than 50 nM.)

SMILES: CN(C)c1cc(N[C@H]2CC[C@@H](NC(=O)c3ccc(F)c(F)c3F)CC2)nc2ccccc12 [compound 124]
- class [6]: 3 (Class 3 The value of percent of control at 10^−7 M was more than 60% or the value of IC50 was more than 200 nM.)

SMILES: COc1cc(CNC[C@H]2CC[C@@H](Nc3cc(N(C)C)c4ccccc4n3)CC2)cc(F)c1O [compound 1199]
- class [2]: 3 (Class 3 The value of percent of control at 10^−7 M was more than 60% or the value of IC50 was more than 200 nM.)

SMILES: CN(C)c1ccnc(N[C@H]2CC[C@@H](CNC(=O)C3CC(=O)c4ccccc43)CC2)n1 (relative stereo) [compound 935, N-[(cis-4-{[4-(dimethylamino)pyrimidin-2-yl]amino}cyclohexyl)methyl]-3-oxoindane-1-carboxamide]
- class [2]: 1 (Class 1: The value of percent of control at 10^−7 M was less than 40% or the value of IC50 was less than 50 nM.)

SMILES: Cc1cnc(N[C@H]2CC[C@@H](NC(=O)c3ccc4c(c3)OC(F)(F)O4)CC2)nc1N(C)C [compound 2926, N-(cis-4-{[4-(dimethylamino)-5-methylpyrimidin-2-yl]amino}cyclohexyl)-2,2-difluoro-1,3-benzodioxole-5-carboxamide]
- class [3]: 1 (Class 1: The value of percent of control at 10^−7 M was less than 40% or the value of IC50 was less than 50 nM.)

SMILES: CN(C)c1nc(N[C@H]2CC[C@@H](NC(=O)c3cc(C(C)(C)C)nn3C)CC2)nc2c1CCCC2 [compound 522]
- class [7]: 3 (Class 3 The value of percent of control at 10^−7 M was more than 60% or the value of IC50 was more than 200 nM.)

SMILES: Cc1cc(N(C)C)nc(N[C@H]2CC[C@@H](C(=O)NCc3cccc(I)c3)CC2)n1 [Example 2571, cis-4-{[4-(dimethylamino)-6-methylpyrimidin-2-yl]amino}-N-(3-iodobenzyl)cyclohexanecarboxamide]
- class: 1

SMILES: CN(C)c1cc(N[C@H]2CC[C@@H](CNC(=O)Nc3c(F)cc(Br)cc3F)CC2)nc2ccccc12 [compound 2386]
- class [4]: 3 (Class 3 The value of percent of control at 10^−7 M was more than 60% or the value of IC50 was more than 200 nM.)

SMILES: CN(C)c1cc(N[C@H]2CC[C@@H](NC(=O)c3ccc(Cl)s3)CC2)nc2ccccc12 [compound 677]
- class [2]: 2 (Class 2: The value of percent of control at 10^−7 M was from 40% to 60% or the value of IC′50 was from 50 nM to 200 nM.)

SMILES: CN(C)c1nc(N[C@H]2CC[C@@H](CNC(=O)Nc3ccccc3C(F)(F)F)CC2)nc2c1CCCC2 [compound 2458]
- class [4]: 3 (Class 3 The value of percent of control at 10^−7 M was more than 60% or the value of IC50 was more than 200 nM.)

SMILES: CN(C)c1nc(N[C@H]2CC[C@@H](CNCc3ccccc3OC(F)F)CC2)nc2c1CCCC2 [compound 1414]
- class [2]: 3 (Class 3 The value of percent of control at 10^−7 M was more than 60% or the value of IC50 was more than 200 nM.)

SMILES: CCOc1ccc(C(=O)CC(C(=O)NC[C@H]2CC[C@@H](Nc3nccc(N(C)C)n3)CC2)C2C(=O)N(c3ccccc3)N=C2C)cc1 (relative stereo) [compound 944]
- class [2]: 3 (Class 3 The value of percent of control at 10^−7 M was more than 60% or the value of IC50 was more than 200 nM.)

SMILES: Cc1cnc(N[C@H]2CC[C@@H](CNC(=O)c3ccc(C(F)(F)F)c(F)c3)CC2)nc1N(C)C [compound 2705, N-[(cis-4-{[4-(dimethylamino)-5-methylpyrimidin-2-yl]amino}cyclohexyl)methyl]-3-fluoro-4-(trifluoromethyl)benzamide]
- class [3]: 2 (Class 2: The value of percent of control at 10^−7 M was from 40% to 60% or the value of IC′50 was from 50 nM to 200 nM.)

SMILES: Cc1ccc(CNC[C@H]2CC[C@@H](Nc3nc4c(c(N(C)C)n3)CCCC4)CC2)cc1 [compound 1428]
- class [2]: 3 (Class 3 The value of percent of control at 10^−7 M was more than 60% or the value of IC50 was more than 200 nM.)

SMILES: CN(C)c1nc(N[C@H]2CC[C@@H](NC(=S)NCc3ccc4c(c3)OCO4)CC2)nc2c1CCCC2 [compound 1946]
- class [6]: 3 (Class 3 The value of percent of control at 10^−7 M was more than 60% or the value of IC50 was more than 200 nM.)

SMILES: COc1ccccc1OC(=O)N[C@H]1CC[C@@H](Nc2cc(N(C)C)c3ccccc3n2)CC1 [compound 1544]
- class [1]: 3 (Class 3 The value of percent of control at 10^−7 M was more than 60% or the value of IC50 was more than 200 nM.)

SMILES: Cc1cc(N(C)C)nc(N[C@H]2CC[C@@H](NC(=O)c3cc(F)cc(C(F)(F)F)c3)CC2)n1 [compound 2962, N-(cis-4-{[4-(dimethylamino)-6-methylpyrimidin-2-yl]amino}cyclohexyl)-3-fluoro-5-(trifluoromethyl)benzamide]
- class [3]: 1 (Class 1: The value of percent of control at 10^−7 M was less than 40% or the value of IC50 was less than 50 nM.)

SMILES: CN(C)c1nc(N[C@H]2CC[C@@H](CNC(=O)Nc3cc(Cl)cc(Cl)c3)CC2)nc2c1CCCC2 [compound 2485]
- class [2]: 3 (Class 3 The value of percent of control at 10^−7 M was more than 60% or the value of IC50 was more than 200 nM.)

SMILES: CN(C)c1cc(N[C@H]2CC[C@@H](CNC(=O)C3c4ccccc4Oc4ccccc43)CC2)nc2ccccc12 [compound 810]
- class [2]: 3 (Class 3 The value of percent of control at 10^−7 M was more than 60% or the value of IC50 was more than 200 nM.)

SMILES: Cc1ccc(C(=O)N[C@H]2CC[C@@H](Nc3nc4c(c(N(C)C)n3)CCCC4)CC2)cc1 [compound 487]
- class [7]: 2 (Class 2: The value of percent of control at 10^−7 M was from 40% to 60% or the value of IC′50 was from 50 nM to 200 nM.)

SMILES: CN(C)c1nc(N[C@H]2CC[C@@H](CNC(=O)Cc3ccccc3I)CC2)nc2c1CCCC2 [compound 1069]
- class [5]: 3 (Class 3 The value of percent of control at 10^−7 M was more than 60% or the value of IC50 was more than 200 nM.)

SMILES: Cc1cccc(C)c1NC(=S)N[C@H]1CC[C@@H](Nc2nccc(N(C)C)n2)CC1 [compound 2261]
- class [2]: 3 (Class 3 The value of percent of control at 10^−7 M was more than 60% or the value of IC50 was more than 200 nM.)

SMILES: Cc1cc(CNC[C@H]2CC[C@@H](Nc3nc4c(c(N(C)C)n3)CCCC4)CC2)ccc1O [compound 1436]
- class [2]: 2 (Class 2: The value of percent of control at 10^−7 M was from 40% to 60% or the value of IC′50 was from 50 nM to 200 nM.)

SMILES: CN(C)c1ccnc(N[C@H]2CC[C@@H](NC(=O)c3ccccc3)CC2)n1 [compound 311, N-(cis-4-{[4-(dimethylamino)pyrimidin-2-yl]amino}cyclohexyl)benzamide]
- class [2]: 3 (Class 3 The value of percent of control at 10^−7 M was more than 60% or the value of IC50 was more than 200 nM.)

SMILES: CN(C)c1ccnc(N[C@H]2CC[C@@H](NC(=O)c3cccc4ccccc34)CC2)n1 [compound 327]
- class [2]: 3 (Class 3 The value of percent of control at 10^−7 M was more than 60% or the value of IC50 was more than 200 nM.)

SMILES: COc1cccc(CNC(=O)[C@H]2CC[C@@H](Nc3nc(C)cc(N(C)C)n3)CC2)c1 [Example 2579, cis-4-{[4-(dimethylamino)-6-methylpyrimidin-2-yl]amino}-N-(3-methoxybenzyl)cyclohexanecarboxamide]
- class: 1
